Data published in publication PMC10962542, “Inhibition of Aurora‐A/N‐Myc Protein–Protein Interaction Using Peptidomimetics: Understanding the Role of Peptide Cyclization” (Chembiochem, 2023).
*1 amine or outer side, *2 acyl side, *3 side chain or, on linkers, in order; H or OH if unused. Where a SMILES comes first, the peptide text is derived from it. Bridges are numbered along the chain shown (N, C = ends). Maleimide(3,4-diyl) = O=C1NC(=O)C([*:2])=C1[*:1]

What was measured:
[1] = target: T1, N‐Myc/Aurora‐A interaction (Aurora‐A122‐403‐C290A/C393A) (Homo sapiens, UniProt O14965, C290A/C393A); assay: competition fluorescence anisotropy (FA) assay against fluorescein labelled N‐Myc61‐89; format: binding; details: SD; further: equilibrated 2 h at room temperature
T1 construct: Aurora‐A 122‐403‐C290A/C393A protein was produced as described previously; made in house
T1 sequence (O14965 122-403 C290A/C393A): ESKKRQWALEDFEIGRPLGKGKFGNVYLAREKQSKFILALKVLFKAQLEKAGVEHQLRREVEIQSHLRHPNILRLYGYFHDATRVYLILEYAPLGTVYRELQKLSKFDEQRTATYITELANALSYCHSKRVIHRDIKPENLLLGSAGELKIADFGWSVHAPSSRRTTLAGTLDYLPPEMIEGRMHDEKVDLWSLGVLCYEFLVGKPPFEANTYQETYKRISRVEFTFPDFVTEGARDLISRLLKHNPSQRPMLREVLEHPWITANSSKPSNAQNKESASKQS
Experimental: Fluorescence anisotropy (FA) assays: All assays were performed using 384‐well plates (Greiner Bio‐one, UK). […] All samples were prepared in 25 mM Tris, 150 mM NaCl, 5 mM MgCl2, pH 7.5, and tested in triplicate using an EnVisionTM 2103 MultiLabel plate reader (Perkin Elmer; Waltham, MA, USA). The parameters were set as follows: Excitation wavelength=480 nm (30 nm bandwidth) and emission wavelength=535 nm (30 nm bandwidth). Measured data were processed and analysed as previously described.[31] Specifically, the perpendicular intensity (P) and parallel intensity (S) were subtracted by the control values and used for calculations of intensity and anisotropy using the following Equations 1, 2, 3, 4, and 5: (1) I=2PG+S (2) r=S-PG (3) Lb=r-rmin/λrmax-r+r-rmin (4) [drawing 1] (5) y=rmax+rmin-rmax/1+(x/x0)^p
For competition FA assays, the average anisotropy and the average standard deviation of the values derived from equation (2) were calculated and fit to a sigmoidal logistic model (equation (5)) using Origin 2021. […] Results are reported as IC50±SD, with data points representing the mean of three replicates and error bars indicating the corresponding SD. Where applicable, ΔΔG was determined as follows: ΔΔG=−RT ln (ΔIC50).

[2] = circular dichroism (CD) spectroscopy; format: physicochemical; details: 150 mM NaCl, 5 mM MgCl2, pH 7.5, 5 °C, n=2, free‐thiol (red) samples with 5 mol equivalents TCEP
Experimental: Circular dichroism (CD): All samples were prepared in Tris buffer (25 mM Tris, 150 mM NaCl, 5 mM MgCl2, pH 7.5) with the exception of free sulfhydryl peptides, to which Tris(2‐carboxyethyl)phosphine (TCEP; 5 mol eq. relative to the peptide) was added. CD spectra were recorded using an APP Chirascan CD spectropolarimeter and 1 mm pathlength quartz cuvettes. Sample concentrations were typically 30–120 μM, as determined by UV−V absorption based on a tryptophan extinction coefficient of 5600 M^−1 cm^−1 and, for mal‐constrained variants, a maleimide coefficient of 1700 M^−1 cm^−1.[16, 32] […] Spectra were recorded in duplicate at 5 °C, over wavelengths ranging from 290 to 180 nm, with data collected every 1 nm (1 nm s^−1). A background spectrum for CD buffer alone was also recorded and background ellipticity values were subtracted from raw sample ellipticity values (θ) when calculating mean residue ellipticities (MREs) using Equation 6: (6) MRE=(θλ-θ0)xMw/nxlxc
Where [θ]λ is the observed ellipticity at a given wavelength λ in mdeg, [θ]0 is the ellipticity observed for the buffer, Mw =molar weight of the peptide in g mol^−1, n=number of residues; c=sample concentration (mg mL^−1); l=pathlength of the cuvette in mm. Estimates of peptide % helicity were made using Equation 7, [33] (7) %helicity=(MRE222-MREcoil)x100/-425001-3/n
where MRE222 is the MRE value at 222 nm, MREcoil=640‐45T (with T in °C)=415 deg cm^2 dmol^−1 res^−1 at 5 °C, and n is the number of backbone amide bonds including the N‐terminal acetyl.

Compound | IC50 [1] [µM] | MRE222 (mean residue ellipticity at 222 nm) ([2]; 25 mM Tris, mean ± SD, SD) [deg cm^−1 dmol^−1 res^−1] | % Helicity (estimated) ([2]; from MRE222 by equation 7, 25 mM Tris) [%]
CC(=O)N[C@@H](CC(C)C)C(=O)N[C@@H](CO)C(=O)N1CCC[C@H]1C(=O)N[C@@H](CO)C(=O)N[C@@H](CCCNC(=N)N)C(=O)NCC(=O)N[C@@H](Cc1ccccc1)C(=O)N[C@@H](C)C(=O)N[C@@H](CCC(=O)O)C(=O)N[C@@H](Cc1c[nH]cn1)C(=O)N[C@@H](CO)C(=O)N[C@@H](CO)C(=O)N[C@@H](CCC(=O)O)C(=O)N1CCC[C@H]1C(=O)N1CCC[C@H]1C(=O)N[C@@H](CO)C(=O)N[C@@H](Cc1c[nH]c2ccccc12)C(=O)N[C@H](C(=O)N[C@H](C(=O)N[C@@H](CCC(=O)O)C(=O)N[C@H]1CSC2=C(SC[C@@H](C(=O)N[C@@H](CCC(=O)O)C(=O)N[C@@H](CC(C)C)C(=O)N[C@@H](Cc3c[nH]c4ccccc34)C(=O)NCC(N)=O)NC(=O)[C@H](CCC(=O)O)NC(=O)[C@H](CC(C)C)NC(=O)[C@H](CC(C)C)NC1=O)C(=O)NC2=O)[C@@H](C)O)C(C)C [N-Myc 61-89 M81C/N85C mal] (Ac-LSPSRGFAEHSSEPPSWVTECLLECELWG-NH2; linker 21-25 via Maleimide(3,4-diyl)) | 133 ± 3 |  | 
CSCC[C@H](NC(=O)[C@@H]1CSC2=C(SC[C@H](NC(=O)[C@@H]3CCCN3C(=O)[C@@H]3CCCN3C(=O)[C@H](CCC(=O)O)NC(=O)[C@H](CO)NC(=O)[C@H](CO)NC(=O)[C@H](Cc3c[nH]cn3)NC(=O)[C@H](CCC(=O)O)NC(=O)[C@H](C)NC(=O)[C@H](Cc3ccccc3)NC(=O)CNC(=O)[C@H](CCCNC(=N)N)NC(=O)[C@H](CO)NC(=O)[C@@H]3CCCN3C(=O)[C@H](CO)NC(=O)[C@H](CC(C)C)NC(C)=O)C(=O)N[C@@H](Cc3c[nH]c4ccccc34)C(=O)N[C@@H](C(C)C)C(=O)N[C@@H]([C@@H](C)O)C(=O)N1)C(=O)NC2=O)C(=O)N[C@@H](CC(C)C)C(=O)N[C@@H](CC(C)C)C(=O)N[C@@H](CCC(=O)O)C(=O)N[C@@H](CC(N)=O)C(=O)N[C@@H](CCC(=O)O)C(=O)N[C@@H](CC(C)C)C(=O)N[C@@H](Cc1c[nH]c2ccccc12)C(=O)NCC(N)=O [N-Myc 61-89 S76C/E80 mal] (Ac-LSPSRGFAEHSSEPPCWVTCMLLENELWG-NH2; linker 16-20 via Maleimide(3,4-diyl)) | 147 ± 13 |  | 
CSCC[C@H](NC(=O)[C@H](CCC(=O)O)NC(=O)[C@@H](NC(=O)[C@H](CS)NC(=O)[C@H](Cc1c[nH]c2ccccc12)NC(=O)[C@H](CO)NC(=O)[C@@H]1CCCN1C(=O)[C@@H]1CCCN1C(=O)[C@H](CCC(=O)O)NC(=O)[C@H](CO)NC(=O)[C@H](CO)NC(=O)[C@H](Cc1c[nH]cn1)NC(=O)[C@H](CCC(=O)O)NC(=O)[C@H](C)NC(=O)[C@H](Cc1ccccc1)NC(=O)CNC(=O)[C@H](CCCNC(=N)N)NC(=O)[C@H](CO)NC(=O)[C@@H]1CCCN1C(=O)[C@H](CO)NC(=O)[C@H](CC(C)C)NC(C)=O)[C@@H](C)O)C(=O)N[C@@H](CS)C(=O)N[C@@H](CC(C)C)C(=O)N[C@@H](CCC(=O)O)C(=O)N[C@@H](CC(N)=O)C(=O)N[C@@H](CCC(=O)O)C(=O)N[C@@H](CC(C)C)C(=O)N[C@@H](Cc1c[nH]c2ccccc12)C(=O)NCC(N)=O [N-Myc 61-89 V78C/L82C red] (Ac-LSPSRGFAEHSSEPPSWCTEMCLENELWG-NH2) |  | -1692 ± 70 | 6 ± 1
CSCC[C@H](NC(=O)[C@H](CCC(=O)O)NC(=O)[C@@H](NC(=O)[C@@H](NC(=O)[C@H](Cc1c[nH]c2ccccc12)NC(=O)[C@H](CO)NC(=O)[C@@H]1CCCN1C(=O)[C@@H]1CCCN1C(=O)[C@H](CCC(=O)O)NC(=O)[C@H](CO)NC(=O)[C@H](CO)NC(=O)[C@H](Cc1c[nH]cn1)NC(=O)[C@H](CCC(=O)O)NC(=O)[C@H](C)NC(=O)[C@H](Cc1ccccc1)NC(=O)CNC(=O)[C@H](CCCNC(=N)N)NC(=O)[C@H](CO)NC(=O)[C@@H]1CCCN1C(=O)[C@H](CO)NC(=O)[C@H](CC(C)C)NC(C)=O)C(C)C)[C@@H](C)O)C(=O)N[C@@H](CC(C)C)C(=O)N[C@H]1CSC2=C(SC[C@@H](C(=O)N[C@@H](Cc3c[nH]c4ccccc34)C(=O)NCC(N)=O)NC(=O)[C@H](CCC(=O)O)NC(=O)[C@H](CC(N)=O)NC(=O)[C@H](CCC(=O)O)NC1=O)C(=O)NC2=O [N-Myc 61-89L83C/L87C mal] (Ac-LSPSRGFAEHSSEPPSWVTEMLCENECWG-NH2; linker 23-27 via Maleimide(3,4-diyl)) | 129 ± 3 |  | 

The remaining molecules from weak to strong by IC50 [1], led by results:

IC50 [1] [µM] | MRE222 (mean residue ellipticity at 222 nm) ([2]; 25 mM Tris, mean ± SD, SD) [deg cm^−1 dmol^−1 res^−1] | % Helicity (estimated) ([2]; from MRE222 by equation 7, 25 mM Tris) [%] | Compound
99 ± 2 |  |  | CSCC[C@@H]1NC(=O)[C@H](CCC(=O)O)NC(=O)[C@@H](NC(=O)[C@@H](NC(=O)[C@H](Cc2c[nH]c3ccccc23)NC(=O)[C@H](CO)NC(=O)[C@@H]2CCCN2C(=O)[C@@H]2CCCN2C(=O)[C@H](CCC(=O)O)NC(=O)[C@H](CO)NC(=O)[C@H](CO)NC(=O)[C@H](Cc2c[nH]cn2)NC(=O)[C@H](CCC(=O)O)NC(=O)[C@H](C)NC(=O)[C@H](Cc2ccccc2)NC(=O)CNC(=O)[C@H](CCCNC(=N)N)NC(=O)[C@H](CO)NC(=O)[C@@H]2CCCN2C(=O)[C@H](CO)NC(=O)[C@H](CC(C)C)NC(C)=O)C(C)C)CSC2=C(SC[C@@H](C(=O)N[C@@H](CCC(=O)O)C(=O)N[C@@H](CC(N)=O)C(=O)N[C@@H](CCC(=O)O)C(=O)N[C@@H](CC(C)C)C(=O)N[C@@H](Cc3c[nH]c4ccccc34)C(=O)NCC(N)=O)NC(=O)[C@H](CC(C)C)NC1=O)C(=O)NC2=O [N-Myc 61-89 T79C/L83C mal] (Ac-LSPSRGFAEHSSEPPSWVCEMLCENELWG-NH2; linker 19-23 via Maleimide(3,4-diyl))
86 ± 7 |  |  | CSCC[C@@H]1NC(=O)[C@@H](NC(=O)[C@@H](NC(=O)[C@@H](NC(=O)[C@H](Cc2c[nH]c3ccccc23)NC(=O)[C@H](CO)NC(=O)[C@@H]2CCCN2C(=O)[C@@H]2CCCN2C(=O)[C@H](CCC(=O)O)NC(=O)[C@H](CO)NC(=O)[C@H](CO)NC(=O)[C@H](Cc2c[nH]cn2)NC(=O)[C@H](CCC(=O)O)NC(=O)[C@H](C)NC(=O)[C@H](Cc2ccccc2)NC(=O)CNC(=O)[C@H](CCCNC(=N)N)NC(=O)[C@H](CO)NC(=O)[C@@H]2CCCN2C(=O)[C@H](CO)NC(=O)[C@H](CC(C)C)NC(C)=O)C(C)C)[C@@H](C)O)CSC2=C(SC[C@@H](C(=O)N[C@@H](CC(N)=O)C(=O)N[C@@H](CCC(=O)O)C(=O)N[C@@H](CC(C)C)C(=O)N[C@@H](Cc3c[nH]c4ccccc34)C(=O)NCC(N)=O)NC(=O)[C@H](CC(C)C)NC(=O)[C@H](CC(C)C)NC1=O)C(=O)NC2=O [N-Myc 61-89 E80C/E84C mal] (Ac-LSPSRGFAEHSSEPPSWVTCMLLCNELWG-NH2; linker 20-24 via Maleimide(3,4-diyl))
69 ± 18 |  |  | CSCC[C@H](NC(=O)[C@H](CCC(=O)O)NC(=O)[C@@H](NC(=O)[C@@H](NC(=O)[C@H](Cc1c[nH]c2ccccc12)NC(=O)[C@H](CO)NC(=O)[C@@H]1CCCN1C(=O)[C@@H]1CCCN1C(=O)[C@H](CCC(=O)O)NC(=O)[C@H](CO)NC(=O)[C@H](CO)NC(=O)[C@H](Cc1c[nH]cn1)NC(=O)[C@H](CCC(=O)O)NC(=O)[C@H](C)NC(=O)[C@H](Cc1ccccc1)NC(=O)CNC(=O)[C@H](CCCNC(=N)N)NC(=O)[C@H](CO)NC(=O)[C@@H]1CCCN1C(=O)[C@H](CO)NC(=O)[C@H](CC(C)C)NC(C)=O)C(C)C)[C@@H](C)O)C(=O)N[C@H]1CSC2=C(SC[C@@H](C(=O)N[C@@H](CC(C)C)C(=O)N[C@@H](Cc3c[nH]c4ccccc34)C(=O)NCC(N)=O)NC(=O)[C@H](CC(N)=O)NC(=O)[C@H](CCC(=O)O)NC(=O)[C@H](CC(C)C)NC1=O)C(=O)NC2=O [N-Myc 61-89 L82C/E86C mal] (Ac-LSPSRGFAEHSSEPPSWVTEMCLENCLWG-NH2; linker 22-26 via Maleimide(3,4-diyl))
